Where two headings read alike, the source gives them in different places.
Assays:
[1] = tested on: Wnt-dependent HCT116 cell line; experiment: Viability assay using Wnt-dependent HCT116 cell line (Cell Titer Glo); type: cell-based
Description: All compounds were tested using the human cell line HEK STF293. This cell line carries a Wnt reporter (TCF/LEF1 promoter), which drives expression of the firefly luciferase protein. The level of Wnt activity is directly correlated with the level of luciferase activity (determined using a simple assay). Compounds that inhibit Wnt signaling by reducing luciferase activity in these two cell lines are further tested biochemically. […] Compounds were further tested in a Viability assay using Wnt-dependent HCT116 cell line. HEK293 cells were seeded in a 6-well plate at approximately 8.0×10^5 cells (2 mL per well). On the first day, Wnt3a-conditioned media (1:1) and compounds (1:100) were added to the plated cells. The final concentrations of compounds were 1 μM, 500 nM, and 100 nM. Vehicle (DMSO) and a Wnt3a-conditioned media plus Vehicle samples were also prepared as controls. Lysates were collected (with non-denaturing lysis buffer) after 24 hours incubation, and protein concentrations determined by Bradford Assay. Immunoblotting with an anti-beta-catenin antibody (equivalent amounts of protein/lane for each condition) were subsequently performed to determine beta-catenin levels. HCT116 cells were seeded at 2,500 cells/well in a 96-well dish (Volume: 100 μL/well). On the second day, the 10 mM stock solution of each test compound was thawed at room temperature. Dilutions of the test compound were prepared in DMSO in a V-bottom 96-well plate. The stock compound solution, DMSO-diluted compound solutions, and DMSO were further diluted 500-fold in cell culture media, and 100 μL of the compound- or DMSO-containing cell culture media was added to each well of the cells. […] The final DMSO concentration was 0.1% in all wells. On the fifth day, 150 μL of media was removed from each well. 50 μL/well Cell Titer Glo reagent (Promega) was added to each well. The plate was shaken at 130 rpm for 15 minutes at room temperature, and the cell viability was determined using a luminescence plate reader. All compounds were tested using the human cell line HEK STF293. This cell line carries a Wnt reporter (TCF/LEF1 promoter), which drives expression of the firefly luciferase protein. The level of Wnt activity is directly correlated with the level of luciferase activity (determined using a simple assay). Compounds that inhibit Wnt signaling by reducing luciferase activity in these two cell lines are further tested biochemically. […] Compounds were further tested in a Viability assay using Wnt-dependent HCT116 cell line. HEK293 cells were seeded in a 6-well plate at approximately 8.0×10^5 cells (2 mL per well). On the first day, Wnt3a-conditioned media (1:1) and compounds (1:100) were added to the plated cells. The final concentrations of compounds were 1 μM, 500 nM, and 100 nM. Vehicle (DMSO) and a Wnt3a-conditioned media plus Vehicle samples were also prepared as controls. Lysates were collected (with non-denaturing lysis buffer) after 24 hours incubation, and protein concentrations determined by Bradford Assay. Immunoblotting with an anti-beta-catenin antibody (equivalent amounts of protein/lane for each condition) were subsequently performed to determine beta-catenin levels. HCT116 cells were seeded at 2,500 cells/well in a 96-well dish (Volume: 100 μL/well). On the second day, the 10 mM stock solution of each test compound was thawed at room temperature. Dilutions of the test compound were prepared in DMSO in a V-bottom 96-well plate. The stock compound solution, DMSO-diluted compound solutions, and DMSO were further diluted 500-fold in cell culture media, and 100 μL of the compound- or DMSO-containing cell culture media was added to each well of the cells. […] The final DMSO concentration was 0.1% in all wells. On the fifth day, 150 μL of media was removed from each well. 50 μL/well Cell Titer Glo reagent (Promega) was added to each well. The plate was shaken at 130 rpm for 15 minutes at room temperature, and the cell viability was determined using a luminescence plate reader. […]

[2] = tested on: Wnt reporter (TCF/LEF1 promoter); experiment: HEK STF293 Wnt reporter (TOPFlash) luciferase assay, Steady Glo normalised to Cell Titer; type: cell-based, human
Description: All compounds were tested using the human cell line HEK STF293. This cell line carries a Wnt reporter (TCF/LEF1 promoter), which drives expression of the firefly luciferase protein. The level of Wnt activity is directly correlated with the level of luciferase activity (determined using a simple assay). Compounds that inhibit Wnt signaling by reducing luciferase activity in these two cell lines are further tested biochemically. […] Compounds were further tested in a Viability assay using Wnt-dependent HCT116 cell line. Compounds were prepared as 10 mM stocks for each compound in DMSO. Dilutions were prepared in a 96-well plate in DMSO. The stock dilutions are as follows: 10 mM, 1 mM, 100 μM, 10 μM, 100 nM, and 10 nM. Plates were sealed and stored at −20° C. […] On the first day, Wnt3a-conditioned media (1:1) were added along with diluted compounds (1:100). […] The final concentrations should therefore be 100 μM, 10 μM, 1 μM, 100 nM, 10 nM, and 1 nM. On the second day, the media was removed and 75 μL of Passive Lysis Buffer (Promega) is added to each well. The plate was shaken at 130 rpm for 15 minutes. For the Steady Glo assay, 45 μL of the lysis was removed and added to a white 96-well plate containing 45 μL/well of Steady Glo solution (Promega). For the Cell Titer assay, 25 μL of the lysis was transferred to a white 96-well plate containing 25 μL/well of Cell Titer solution (Promega). Both Steady Glo and Cell Titer assays were read with a luminescence plate reader. When determining EC50, the Steady Glo values were divided by the Cell Titer values to normalize for cell number. All compounds were tested using the human cell line HEK STF293. This cell line carries a Wnt reporter (TCF/LEF1 promoter), which drives expression of the firefly luciferase protein. The level of Wnt activity is directly correlated with the level of luciferase activity (determined using a simple assay). Compounds that inhibit Wnt signaling by reducing luciferase activity in these two cell lines are further tested biochemically. […] Compounds were further tested in a Viability assay using Wnt-dependent HCT116 cell line. Compounds were prepared as 10 mM stocks for each compound in DMSO. Dilutions were prepared in a 96-well plate in DMSO. The stock dilutions are as follows: 10 mM, 1 mM, 100 μM, 10 μM, 100 nM, and 10 nM. Plates were sealed and stored at −20° C. […] On the first day, Wnt3a-conditioned media (1:1) were added along with diluted compounds (1:100). […] The final concentrations should therefore be 100 μM, 10 μM, 1 μM, 100 nM, 10 nM, and 1 nM. On the second day, the media was removed and 75 μL of Passive Lysis Buffer (Promega) is added to each well. The plate was shaken at 130 rpm for 15 minutes. For the Steady Glo assay, 45 μL of the lysis was removed and added to a white 96-well plate containing 45 μL/well of Steady Glo solution (Promega). For the Cell Titer assay, 25 μL of the lysis was transferred to a white 96-well plate containing 25 μL/well of Cell Titer solution (Promega). Both Steady Glo and Cell Titer assays were read with a luminescence plate reader. When determining EC50, the Steady Glo values were divided by the Cell Titer values to normalize for cell number. All compounds were tested using the human cell line HEK STF293. This cell line carries a Wnt reporter (TCF/LEF1 promoter), which drives expression of the firefly luciferase protein. The level of Wnt activity is directly correlated with the level of luciferase activity (determined using a simple assay). Compounds that inhibit Wnt signaling by reducing luciferase activity in these two cell lines are further tested biochemically. […] Compounds were further tested in a Viability assay using Wnt-dependent HCT116 cell line. Compounds were prepared as 10 mM stocks for each compound in DMSO. Dilutions were prepared in a 96-well plate in DMSO. The stock dilutions are as follows: 10 mM, 1 mM, 100 μM, 10 μM, 100 nM, and 10 nM. Plates were sealed and stored at −20° C. […]

[3] = Homo sapiens, HCT-116, read-out: Viability IC50 category
[4] = Homo sapiens, STF/293, read-out: TOPFlash IC50 category
[5] = Homo sapiens, HCT-116, Examples for Formulae (IV), (V), (VI), and (VII), HCT116 cells, read-out: Viability IC50 category
[6] = Homo sapiens, STF/293, Examples for Formulae (IV), (V), (VI), and (VII), HEK STF293 cells, Wnt3a-conditioned media, read-out: TOPFlash IC50 category
[7] = Examples for Formulae (IV), (V), (VI), and (VII), HCT116 cells, read-out: Viability IC50 category
[8] = Examples for Formulae (IV), (V), (VI), and (VII), HEK STF293 cells, Wnt3a-conditioned media, read-out: TOPFlash IC50 category

Row | SMILES | IC50 [1, 3] | IC50 [2, 4] | further results
1 | Cn1nc(C(=O)Nc2nc(-c3ccccn3)cs2)c(-c2ccc(F)cc2)n1 [Example 19] |  |  | IC50 ([1]; Homo sapiens, HCT-116, Examples for Formulae (I), (II), and (III), HCT116 cells, read-out: Viability IC50 category): 200 to 500 nM; IC50 ([2]; Homo sapiens, STF/293, Examples for Formulae (I), (II), and (III), HEK STF293 cells, Wnt3a-conditioned media, read-out: TOPFlash IC50 category): 200 to 500 nM
2 | COc1ccccc1-c1noc(C)c1C(=O)Nc1nc(-c2ccccn2)cs1 [Example 21] | 1000 to 10000 nM | 1000 to 10000 nM | 
3 | COc1ncccc1-c1noc(C)c1C(=O)Nc1nc(-c2ccccn2)cs1 [Example 22] | 200 to 500 nM | 200 to 500 nM | 
4 | CC(C)(C)c1nc(-c2ccc(F)cc2)c(C(=O)Nc2nc(-c3ccccn3)cs2)o1 [Example 23] | 200 to 500 nM | 200 to 500 nM | 
5 | Cc1onc(-c2ccc(C(F)(F)F)cc2)c1C(=O)Nc1nc(-c2ccccn2)cs1 [Example 24] | < 200 nM | < 200 nM | 
6 | Cc1onc(-c2ccc(OC(F)(F)F)cc2)c1C(=O)Nc1nc(-c2ccccn2)cs1 [Example 26] |  |  | IC50 [1, 5]: < 200 nM; IC50 [2, 6]: 200 to 500 nM
7 | Cc1onc(-c2ccccc2)c1C(=O)Nc1nc(-c2ccccn2)cs1 [Example 27] | 200 to 500 nM | 200 to 500 nM | 
8 | Cc1onc(-c2ccccc2Cl)c1C(=O)Nc1nc(-c2ccccn2)cs1 [Example 28] | 200 to 500 nM | 200 to 500 nM | 
9 | Cc1onc(-c2c(Cl)cccc2Cl)c1C(=O)Nc1nc(-c2ccccn2)cs1 [Example 29] | < 200 nM | < 200 nM | 
10 | Cc1nc(-c2ccc(C#N)cc2)c(C(=O)Nc2nc(-c3ccccn3)cs2)o1 [Example 30] |  |  | IC50 [1, 7]: 200 to 500 nM; IC50 [2, 8]: < 200 nM
11 | O=C(Nc1nc(-c2ccccn2)cs1)c1oc(C2CC2)nc1-c1ccc(F)cc1 [Example 31] |  |  | IC50 [1, 5]: 200 to 500 nM; IC50 [2, 6]: < 200 nM
12 | O=C(Nc1nc(-c2ccccn2)cs1)c1oc(C(F)F)nc1-c1ccc(F)cc1 [Example 33] |  |  | IC50 [1, 7]: 200 to 500 nM; IC50 [2, 8]: < 200 nM
13 | CN(C(=O)c1ccc(Cl)cc1)c1ncc(C(=O)Nc2nc(-c3ccccn3)cs2)o1 [Example 34] |  |  | IC50 [1, 7]: 1000 to 10000 nM; IC50 [2, 8]: 1000 to 10000 nM
14 | CN(C(=O)c1ccc(C(F)(F)F)cc1)c1ncc(C(=O)Nc2nc(-c3ccccn3)cs2)o1 [Example 35] |  |  | IC50 [1, 7]: 1000 to 10000 nM; IC50 [2, 8]: 500 to 1000 nM

From patent publication US20250257061A1, “COMPOSITIONS AND METHODS FOR TREATING CANCER AND REDUCING WNT MEDIATED EFFECTS” (StemSynergy Therapeutics, Inc., priority 2024, published 2025)
